The values that follow come from ChEMBL document CHEMBL1155873, “Sesquiterpenes from the Hainan Sponge Dysidea septosa” (J Nat Prod, 2008).

SMILES strings stand for the structures.

This test has as its target T1, Tyrosine-protein phosphatase non-receptor type 1 (Homo sapiens, UniProt P18031).
T1 sequence (P18031 whole entry): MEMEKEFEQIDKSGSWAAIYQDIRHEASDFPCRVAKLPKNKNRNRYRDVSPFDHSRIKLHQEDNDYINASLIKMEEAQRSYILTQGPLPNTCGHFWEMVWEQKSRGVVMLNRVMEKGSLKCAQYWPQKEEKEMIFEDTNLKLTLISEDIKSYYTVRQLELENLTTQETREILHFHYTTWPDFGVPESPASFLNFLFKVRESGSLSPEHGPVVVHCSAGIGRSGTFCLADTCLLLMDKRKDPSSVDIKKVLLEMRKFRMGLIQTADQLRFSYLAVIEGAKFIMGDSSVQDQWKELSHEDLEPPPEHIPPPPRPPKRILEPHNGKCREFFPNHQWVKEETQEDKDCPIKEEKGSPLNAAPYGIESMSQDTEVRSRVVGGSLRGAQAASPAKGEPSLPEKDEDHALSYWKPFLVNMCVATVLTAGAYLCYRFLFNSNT
The test is described as follows: Inhibition of human recombinant PTP1B catalytic domain.
With `C=C1CCC[C@@H](C)[C@@]1(C)CCc1ccoc1`, the half-maximal inhibitory concentration (IC50) was 31.1 µM.

In the case of `C=C1C=CC[C@@H](C)[C@@]1(C)CCC1=CC(O)OC1=O` (some centres undefined) [HYDROXYBUTENOLIDE], the IC50 is 46.7 µM. Regarding `CC1=C[C@@H]2C[C@H](C)[C@]1(C)CCc1ccoc12`, the 50% inhibitory concentration (IC50) is 8.78 µM. In the case of `C[C@@H]1[C@@H]2C=C[C@@](C)(OO2)[C@@]1(C)CCC1=CC(O)OC1=O` (some centres undefined) [LINGSHUIPEROXIDE], the IC50 is 31.4 µM.
